Measurements: patent US8674103B2, “Lyotropic liquid crystal systems based on aromatic tetracarboxylic bisbenzoimidazole derivatives and methods for making” (Nitto Denko Corporation, priority 2009, dated 2014)

Experiment: Measurement of dichroic ratios of coated films by polarized absorbance spectra
Type: physicochemical
Experimental: Gardner Co. Inc.) at a linear velocity of 25 mm/s. The resulting film thickness was approximately 0.2 μm. The process was conducted at room temperature (˜20° C.) and relative humidity of 65% after the film was dried under the same condition. […] The dichroic ratio […] was equal to about 23 at about 500 nm. […] Gardner Co. Inc.) at a linear velocity of 25 mm/s. The resulting film thickness was approximately 200 nm. The process was conducted at room temperature (˜20° C.) and relative humidity of 65% after the film was dried under the same condition. The film was characterized by absorbance spectra measured on a spectrophotometer in a wavelength range from 380 to 780 nm using a light beam polarized along the direction of the film application (Apar) and the direction perpendicular to that (Aper).

## O=C(NCCOCCOCCCS(=O)(=O)O)c1ccc2c(c1)nc1c3ccc4c5ccc6c7c(ccc(c8ccc(c(=O)n21)c3c84)c57)c(=O)n1c2cc(C(=O)NCCOCCOCCCS(=O)(=O)O)ccc2nc61 [Compound 1]
Sample 1: 12 wt % solution titrated with triethylamine to pH 7, film approx. 0.2 μm, at about 500 nm
  dichroic ratio Kd=log(Apar)/log(Aper): about 23
Table 1, LLC chromophores
  λmax: 500 nm
Table 1, at λmax
  Dichroic ratio: 23

## O=C(NCCOCCS(=O)(=O)O)c1ccc2c(c1)nc1c3ccc4c5ccc6c7c(ccc(c8ccc(c(=O)n21)c3c84)c57)c(=O)n1c2cc(C(=O)NCCOCCS(=O)(=O)O)ccc2nc61 [Compound 2]
Sample 2: 8 wt % solution titrated with LiOH to pH 7, film approx. 0.2, at about 500 nm
  dichroic ratio (Kd): about 11

## O=C(NCCN(CCCS(=O)(=O)O)CCCS(=O)(=O)O)c1ccc2c(c1)nc1c3ccc4c5ccc6c7c(ccc(c8ccc(c(=O)n21)c3c84)c57)c(=O)n1c2cc(C(=O)NCCN(CCCS(=O)(=O)O)CCCS(=O)(=O)O)ccc2nc61 [Compound 3]
Sample 3: 15 wt % solution titrated with LiOH to pH 7, film approx. 0.2 μm, at about 500 nm
  dichroic ratio (Kd): about 17

## O=C(NCCS(=O)(=O)[O-])c1ccc2nc3c4ccc5c(=O)n6c7cc(C(=O)NCCS(=O)(=O)[O-])ccc7nc6c6ccc(c(=O)n3c2c1)c4c56.[K+].[K+] [Compound 7]
Sample 6: 8 wt % solution titrated with KOH to pH 7, film approx. 0.2, at about 450 nm
  dichroic ratio (Kd): about 8

## O=C(NCCCS(=O)(=O)[O-])c1ccc2nc3n(c2c1)Cc1ccc2c4c1c-3ccc4c(=O)n1c3cc(C(=O)NCCCS(=O)(=O)[O-])ccc3nc21.[Li+].[Li+] [Compound 8]
Sample 7: 8 wt % solution titrated with LiOH to pH 7, film approx. 0.2 μm, at about 450 nm
  dichroic ratio (Kd): about 10

## O=C(NCCN1CCCC1)c1ccc2nc3c4ccc5c(=O)n6c7cc(C(=O)NCCN8CCCC8)ccc7nc6c6ccc(c(=O)n3c2c1)c4c56 [Compound 17d]
Sample 11: 25 wt % solution in water, film approx. 200 nm, at about 470 nm
  dichroic ratio (Kd): about 4
